In data set [1] the target is T1, Albumin (Homo sapiens, UniProt P02768). The data set can be described thus: Displacement of [C13]-methyl oleic acid from ibuprofen site of human serum albumin by NMR.
In data set [2] the target is T1, Albumin. As to the kind of experiment: Displacement of [C13]-methyl oleic acid from warfarin site of human serum albumin by NMR.

T1 sequence (P02768 whole entry): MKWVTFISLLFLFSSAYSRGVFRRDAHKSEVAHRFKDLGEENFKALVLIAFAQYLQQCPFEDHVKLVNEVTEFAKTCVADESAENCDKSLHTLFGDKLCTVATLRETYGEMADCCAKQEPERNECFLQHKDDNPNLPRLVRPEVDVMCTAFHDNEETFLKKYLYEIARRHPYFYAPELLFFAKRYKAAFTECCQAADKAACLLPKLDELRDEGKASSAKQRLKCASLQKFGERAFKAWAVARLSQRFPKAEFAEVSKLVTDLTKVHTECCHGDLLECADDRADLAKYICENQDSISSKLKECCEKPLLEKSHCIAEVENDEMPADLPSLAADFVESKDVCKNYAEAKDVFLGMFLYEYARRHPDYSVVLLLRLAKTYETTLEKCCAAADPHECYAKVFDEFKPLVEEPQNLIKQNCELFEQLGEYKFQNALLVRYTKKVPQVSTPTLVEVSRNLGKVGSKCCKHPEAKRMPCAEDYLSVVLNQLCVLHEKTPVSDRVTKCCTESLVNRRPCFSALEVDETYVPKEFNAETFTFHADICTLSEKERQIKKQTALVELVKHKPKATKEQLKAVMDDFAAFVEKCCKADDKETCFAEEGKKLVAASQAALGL

Regarding `Cn1c(/C=C/c2ccc(C#N)cc2C(=O)O)cc2ccccc21`, the result on Albumin [1] and on Albumin [2] was Active.

The values are drawn from ChEMBL document CHEMBL1140642, “Human serum albumin binding assay based on displacement of a non selective fluorescent inhibitor” (Bioorg Med Chem Lett, 2007).
